From the supplement of paper PMC9386025

What was measured:
Assay in all cases: drug sensitivity score (DSS) (DSS (dimensionless)); higher = more sensitive (stronger drug response)
[1] = tested on: FIMM-PDC6 (patient-derived ovarian cancer cells); settings: genetic perturbation: none (patient-derived cell culture)
Procedure, shortened: (§1)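 Ovarian cancer cell lines with shRNA induced by 100 ng/ml doxycycline for at least three days, along with patient-derived cultures, were seeded at 1 000 – 1 500 cells per well onto drugs pre-plated in 384-well plates at five concentrations over a 10,000-fold range and incubated for three days at 37 °C and 5.0 % CO2. CellTiter-Glo luminescence measured on a PHERAstar FS served as the viability readout, and each drug's dose-response curve was summarised as a drug sensitivity score following an earlier published method.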

[2] = tested on: FIMM-PDC3 (patient-derived ovarian cancer cells); settings: genetic perturbation: none (patient-derived cell culture)
Procedure, shortened: as §1

[3] = tested on: JHOS2
Procedure, shortened: as §1

[4] = tested on: FIMM-PDC7 (patient-derived ovarian cancer cells); settings: genetic perturbation: none (patient-derived cell culture)
Procedure, shortened: as §1

[5] = tested on: Kuramochi
Procedure, shortened: as §1

[6] = tested on: FIMM-PDC4 (patient-derived ovarian cancer cells); settings: genetic perturbation: none (patient-derived cell culture)
Procedure, shortened: as §1

[7] = tested on: OVSAHO
Procedure, shortened: as §1

[8] = tested on: FIMM-PDC1 (patient-derived ovarian cancer cells); settings: genetic perturbation: none (patient-derived cell culture)
Procedure, shortened: as §1

[9] = tested on: FIMM-PDC5 (patient-derived ovarian cancer cells); settings: genetic perturbation: none (patient-derived cell culture)
Procedure, shortened: as §1

[10] = genetic perturbation: DOX-induced PTK7 shRNA knockdown
[11] = genetic perturbation: DOX-induced control shRNA

Structure (SMILES)	drug sensitivity score [1]	drug sensitivity score [2]	drug sensitivity score [3, 10]	drug sensitivity score [3, 11]	drug sensitivity score [4]	drug sensitivity score [5, 10]	drug sensitivity score [5, 11]	drug sensitivity score [6]	drug sensitivity score [7, 10]	drug sensitivity score [7, 11]	drug sensitivity score [8]	drug sensitivity score [9]
COc1cc2c(cc1-c1c(C)noc1C)ncc1[nH]c(=O)n([C@H](C)c3ccccn3)c12 [I-BET151]	5.9	4.5	8.4	6.2	9.9	10.6	3.7	3.9	5.7	10.3	3.15	8.9
CC(C)C[C@H](NC(=O)[C@H](CCc1ccccc1)NC(=O)CN1CCOCC1)C(=O)N[C@@H](Cc1ccccc1)C(=O)N[C@@H](CC(C)C)C(=O)[C@@]1(C)CO1 [Carfilzomib]	29.3	28.3	25.2	23.7	26.1	21.9	25	22.2	24.9	20.5	26.6	23.6
Cn1cnc2c(F)c(Nc3ccc(Br)cc3Cl)c(C(=O)NOCCO)cc21 [Selumetinib]	7.6	4.9	0.7	8.6	10.3	7.5	2	10	13.5	1.7	< 0	11.4
Cc1cnc(Nc2ccc(OCCN3CCCC3)cc2)nc1Nc1cccc(S(=O)(=O)NC(C)(C)C)c1 [Fedratinib]	3	4.3	8.5	9.1	2.9	8.8	8.7	7	7.2	8.8	3.65	10.7
CN(Cc1cnc2nc(N)nc(N)c2n1)c1ccc(C(=O)N[C@@H](CCC(=O)O)C(=O)O)cc1 [Methotrexate]	< 0	< 0	< 0	< 0	< 0	0.45	1.5	< 0	< 0	4.6	2.2	< 0
Nc1nc(Cl)nc2c1ncn2[C@@H]1O[C@H](CO)[C@@H](O)[C@@H]1F [Clofarabine]	3.2	6.1	15.1	10.3	3.2	< 0	< 0	7.4	2.5	3.4	3.15	13.6
COC(=O)C[C@](O)(CCCC(C)(C)O)C(=O)O[C@@H]1C(OC)=C[C@]23CCCN2CCc2cc4c(cc2[C@H]13)OCO4 [Omacetaxine]	25.3	27.2	20.8	21.6	23.8	23.8	14.3	22.9	21.7	21.7	23.7	21.3
COc1cc2c(cc1OC(C)C)[C@H](c1ccc(Cl)cc1)N(c1ccc(N(C)C[C@H]3CC[C@H](N4CCN(C)C(=O)C4)CC3)cc1)C(=O)C2 [NVP-CGM097]	10.9	7.4	5.9	6.1	10	5.75	8	9.2	5.2	8.5	5.45	15.4
NC(=O)N1CCC(CC(=O)N2CCC([C@H]3c4ncc(Br)cc4CCc4cc(Cl)cc(Br)c43)CC2)CC1 [Lonafarnib]	9.8	9.3	5.5	9	10	8.85	8.7	6.3	9.4	9.9	9.45	7
NC(=O)/C(=C/n1cnc(-c2cc(C(F)(F)F)cc(C(F)(F)F)c2)n1)c1cncnc1 [Eltanexor]	25.8	23.7	18.9	17	17.8	12.4	17	19.9	17.8	9.5	14.7	22.4
CC[C@@H]1C(=O)N(C)c2cnc(Nc3ccc(C(=O)NC4CCN(C)CC4)cc3OC)nc2N1C1CCCC1 [BI 2536]	0.1	7.5	16	4.6	3.5	10.7	3	6.1	5.9	8.8	6.05	19.4
CC(=O)c1cnc2ccc(-c3cc(Cl)c(O)c(Cl)c3)nc2c1N[C@H]1CC[C@H](CN(C)C)CC1 [OTS167]	13.9	12.4	15.7	18.8	14.6	10.1	5.8	12.3	8	10.6	11.3	14.7
O=C(NOC[C@H](O)CO)c1ccc(F)c(F)c1Nc1ccc(I)cc1F	3.9	3	0.6	6.2	3.1	5.9	4	9.4	4.6	4.2	< 0	7.8
CO[C@@H]1[C@H](N(C)C(=O)c2ccccc2)C[C@H]2O[C@]1(C)n1c3ccccc3c3c4c(c5c6ccccc6n2c5c31)C(=O)NC4 [Midostaurin]	7.8	5.5	13.1	10.7	10.3	9	8.9	15.7	13.1	7.9	8.1	17.8
COc1cc(N2CCC(N3CCN(C)CC3)CC2)ccc1Nc1ncnc(Nc2ccccc2S(=O)(=O)C(C)C)n1 [ASP3026]	5.3	5.5	5.7	5.1	3.4	4.5	3.2	8.1	5.3	4.5	3.85	7.7
CC(C)c1cc(C(=O)N2Cc3ccc(CN4CCN(C)CC4)cc3C2)c(O)cc1O [Onalespib]	12.8	9.4	10.3	11.4	10.6	7.1	< 0	15.1	< 0	5.4	10.4	12.5

Structure (SMILES)	drug sensitivity score [1]	drug sensitivity score [2]	drug sensitivity score [3, 10]	drug sensitivity score [3, 11]	drug sensitivity score [4]	drug sensitivity score [5, 10]	drug sensitivity score [5, 11]	drug sensitivity score [6]	drug sensitivity score [7, 10]	drug sensitivity score [7, 11]	drug sensitivity score [8]	drug sensitivity score [9]
CC(C)Nc1cc(-c2c[nH]c(C(=O)N[C@H](CO)c3cccc(Cl)c3)c2)c(Cl)cn1 [Ulixertinib]	12.3	6.4	2.8	6.8	12	10.2	3.3	13.1	7.3	5	0.15	14.3
CC(=O)O[C@H]1C(=O)[C@@]2(C)[C@H]([C@H](OC(=O)c3ccccc3)[C@]3(O)C[C@H](OC(=O)[C@H](O)[C@@H](NC(=O)c4ccccc4)c4ccccc4)C(C)=C1C3(C)C)[C@]1(OC(C)=O)CO[C@@H]1C[C@@H]2O [Paclitaxel]	10.5	18.4	17.3	11.7	7	18.1	3.1	18.7	11.1	15.6	15.9	20.8
CC[C@H](CC#N)OC(=O)N[C@@H](C)c1cccc(NC(=O)Nc2ccc(-c3cnco3)c(OC)c2)c1 [AVN944]	6.6	12	5.8	9.6	10	9.7	8.9	7.4	11.7	9.7	7.65	18.1
COc1cc(Nc2c(C#N)cnc3cc(OCCCN4CCN(C)CC4)c(OC)cc23)c(Cl)cc1Cl [Bosutinib]	12.3	10.5	9.3	10.9	6.5	10.6	6.4	13.7	12.1	8.7	7.4	14.3
COc1cccc2c1C(=O)c1c(O)c3c(c(O)c1C2=O)C[C@@](O)(C(=O)CO)C[C@@H]3O[C@H]1C[C@H](N)[C@@H](O)[C@H](C)O1 [Epirubicin]	3.5	6.6	7.1	6.1	7.4	4.45	3.9	7.9	5.8	5.2	4.2	5.6
CN(C)Cc1c(C(=O)NCCOc2ccc(C(=O)NO)cc2)oc2ccccc12 [Abexinostat]	14.3	13.3	14.4	13.3	11.7	18.5	8.6	8.7	14.6	11.9	12.7	16.2
FC(F)c1nc2ccccc2n1-c1nc(N2CCOCC2)nc(N2CCOCC2)n1 [ZSTK474]	11.8	10	6.6	8.1	15.7	13.8	7.5	13.9	13.5	14	8.5	17.4
CCOC(=O)CCNc1cc(N2CCc3ccccc3CC2)nc(-c2ccccn2)n1 [GSK-J4]	< 0	< 0	0.7	2.2	0.3	5.3	7.4	< 0	< 0	11.7	0.2	< 0
CCC1=C[C@@H]2CN(C1)Cc1c([nH]c3ccccc13)[C@@](C(=O)OC)(c1cc3c(cc1OC)N(C)[C@H]1[C@@](O)(C(=O)OC)[C@H](OC(C)=O)[C@]4(CC)C=CCN5CC[C@]31[C@@H]54)C2 [Vinorelbine]	18.6	26.2	19.4	17.1	12.8	20.3	7.2	26.7	22.6	18.5	19.2	27.2
CC(=O)c1cc2c(o1)C(=O)c1ccccc1C2=O [Napabucasin]	14.4	21.8	22	19.2	17.2	16.7	17.3	15.3	18.9	16.1	10.8	13.4
Cc1cc(Nc2cc(CN3CCOCC3)c3nc(C)c(Cc4ccc(Cl)cc4F)n3n2)n[nH]1 [Gandotinib]	4.6	7.1	7	2.7	7.2	5.2	5.6	7.4	6.6	5.1	5.25	8.6
Cn1cc(C2=Nc3cc(NC(=O)C(N)C4CCCCC4)cc4c3C2=CNNC4=O)cn1 (centres undefined)	6.4	16.4	4.7	4.9	6.8	7.35	3.5	6.2	9.2	5.1	12.8	10.7
CO[C@H]1C(=O)[C@]2(C)[C@@H](OC)C[C@H]3OC[C@@]3(OC(C)=O)[C@H]2[C@H](OC(=O)c2ccccc2)[C@]2(O)C[C@H](OC(=O)[C@H](O)[C@@H](NC(=O)OC(C)(C)C)c3ccccc3)C(C)=C1C2(C)C [Cabazitaxel]	8.7	21.9	20.4	13.8	12.7	19.6	3.8	23.9	12.3	15.3	17.4	23.5
CC(C)n1nc(-c2ccc3oc(N)nc3c2)c2c(N)ncnc21 [Sapanisertib]	16.3	7.6	6.9	9.3	16.3	10.1	10.7	15.4	14	11.6	7.5	21.2
Nc1ccccc1NC(=O)c1ccc(CNc2nccc(-c3cccnc3)n2)cc1 [Mocetinostat]	8.7	9.7	8	3.4	7.5	9.95	4.1	7.1	10	3.8	6.35	12.3
COC(=O)c1ccc2c(c1)NC(=O)/C2=C(\Nc1ccc(N(C)C(=O)CN2CCN(C)CC2)cc1)c1ccccc1 [Nintedanib]	1.9	2.5	4	4.4	1.2	7.2	2.7	8.5	9.4	1.5	0.25	9.9
